According to PubChem BioAssay AID330 (DTP/NCI, 2004):
Values joined by “and” are separate entries in the source; they are usually repeats but may differ in a detail not shown here. Equal values may be shown once. Inconclusive results and toxic doses are left out.

Tested on: P388 leukemia ip, CD2F1 mice, survival T/C
Assay: NCI In Vivo Anticancer Drug Screen. Data for tumor model P388 Leukemia (intraperitoneal) in CD2F1 (CDF1) mice
Conditions: endpoint: median survival time, higher = longer survival
Summary of the method: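 Mice carrying the transplanted tumor received test compound or vehicle. Survival was recorded in each group, and the value is the treated-group measurement divided by that of the vehicle-treated control group.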

[1] = dose: 25.0 mg/kg/injection, schedule: Q01DX009 (ip), vehicle: Klucel (hydroxypropylcellulose) (HPC)
[2] = dose: 50.0 mg/kg/injection, schedule: Q01DX009 (ip), vehicle: Klucel (hydroxypropylcellulose) (HPC)
[3] = dose: 100.0 mg/kg/injection, schedule: Q01DX009 (ip), vehicle: saline with Tween-80
[4] = dose: 100.0 mg/kg/injection, schedule: Q04DX003 (ip), vehicle: saline with Tween-80
[5] = dose: 200.0 mg/kg/injection, schedule: Q01DX009 (ip), vehicle: saline with Tween-80
[6] = dose: 200.0 mg/kg/injection, schedule: Q04DX003 (ip), vehicle: saline with Tween-80
[7] = dose: 50.0 mg/kg/injection, schedule: Q01DX009 (ip), vehicle: saline
[8] = dose: 25.0 mg/kg/injection, schedule: Q01DX009 (ip), vehicle: saline with Tween-80
[9] = dose: 50.0 mg/kg/injection, schedule: Q01DX009 (ip), vehicle: saline with Tween-80
[10] = dose: 100.0 mg/kg/injection, schedule: Q01DX009 (ip), vehicle: saline
[11] = dose: 200.0 mg/kg/injection, schedule: Q01DX009 (ip), vehicle: saline
[12] = dose: 50.0 mg/kg/injection, schedule: Q01DX005 (ip), vehicle: Klucel (hydroxypropylcellulose) (HPC)
[13] = dose: 100.0 mg/kg/injection, schedule: Q01DX009 (ip), vehicle: Klucel (hydroxypropylcellulose) (HPC)
[14] = dose: 200.0 mg/kg/injection, schedule: Q01DX009 (ip), vehicle: Klucel (hydroxypropylcellulose) (HPC)
[15] = dose: 50.0 mg/kg/injection, schedule: Q01DX005 (ip), vehicle: saline with Tween-80
[16] = dose: 100.0 mg/kg/injection, schedule: Q01DX005 (ip), vehicle: saline with Tween-80
[17] = dose: 200.0 mg/kg/injection, schedule: Q01DX005 (ip), vehicle: saline with Tween-80
[18] = dose: 12.5 mg/kg/injection, schedule: Q01DX009 (ip), vehicle: Klucel (hydroxypropylcellulose) (HPC)

SMILES: Cc1ccccc1N=Nc1c(O)n(-c2ccccc2Cl)c(=S)n(-c2ccccc2)c1=O
- T/C (dose: 25.0 mg/kg/injection, schedule: Q01DX001 (ip), vehicle: Klucel (hydroxypropylcellulose) (HPC)): 102 % of control
- T/C (dose: 50.0 mg/kg/injection, schedule: Q01DX001 (ip), vehicle: Klucel (hydroxypropylcellulose) (HPC)): 104 % of control
- T/C (dose: 100.0 mg/kg/injection, schedule: Q01DX001 (ip), vehicle: Klucel (hydroxypropylcellulose) (HPC)): 101 % of control

SMILES: CC(C)(CO)NO
- T/C (dose: 50.0 mg/kg/injection, schedule: Q01DX005 (ip), vehicle: saline): 106 % of control
- T/C (dose: 100.0 mg/kg/injection, schedule: Q01DX005 (ip), vehicle: saline): 103 % of control
- T/C (dose: 200.0 mg/kg/injection, schedule: Q01DX005 (ip), vehicle: saline): 104 % of control

SMILES: COC(=O)C(CCC(=O)CCl)N1C(=O)c2ccccc2C1=O (configuration not stated)
- T/C [1]: 108 % of control
- T/C [2]: 106 % of control

SMILES: CCOP(=S)(Nc1ccc(F)cc1F)OCC
- T/C (dose: 100.0 mg/kg/injection, schedule: Q04DX002 (ip), vehicle: saline with Tween-80): 113 % of control
- T/C (dose: 200.0 mg/kg/injection, schedule: Q04DX002 (ip), vehicle: saline with Tween-80): 95 % of control

SMILES: CCC[CH2][Sn]1([CH2]CCC)[O]C2C(O)OC(CO)C(O)C2[O]1 (configuration not stated)
- T/C (dose: 1.56 mg/kg/injection, schedule: Q04DX003 (ip), vehicle: saline): 107 % of control
- T/C (dose: 3.12 mg/kg/injection, schedule: Q04DX003 (ip), vehicle: saline): 107 % of control and 109 % of control
- T/C (dose: 6.25 mg/kg/injection, schedule: Q04DX003 (ip), vehicle: saline): 111 % of control

SMILES: Cn1c(Cl)c(/C=N\Nc2ccc([N+](=O)[O-])cc2[N+](=O)[O-])c2ccccc21
- T/C (dose: 100.0 mg/kg/injection, schedule: Q01DX001 (ip), vehicle: saline with Tween-80): 92 % of control
- T/C (dose: 200.0 mg/kg/injection, schedule: Q01DX001 (ip), vehicle: saline with Tween-80): 93 % of control
- T/C (dose: 400.0 mg/kg/injection, schedule: Q01DX001 (ip), vehicle: saline with Tween-80): 91 % of control

SMILES: C[C@@]1(CO)CCc2c(c3ccccc3oc2=O)O1
- T/C (dose: 60.0 mg/kg/injection, schedule: Q01DX005 (ip), vehicle: saline with Tween-80): 94 % of control
- T/C (dose: 120.0 mg/kg/injection, schedule: Q01DX005 (ip), vehicle: saline with Tween-80): 92 % of control
- T/C (dose: 240.0 mg/kg/injection, schedule: Q01DX005 (ip), vehicle: saline with Tween-80): 90 % of control

SMILES: CCC(C)N(C)/N=N/c1nc[nH]c1C(N)=O (configuration not stated)
- T/C [3]: 115 % of control
- T/C [4]: 95 % of control
- T/C [5]: 105 % of control
- T/C [6]: 113 % of control
- T/C (dose: 400.0 mg/kg/injection, schedule: Q04DX003 (ip), vehicle: saline with Tween-80): 113 % of control

SMILES: [Co].[N-]=C=S.[N-]=C=S.[N-]=C=S.[N-]=C=S
- T/C (dose: 9.5 mg/kg/injection, schedule: Q01DX009 (ip), vehicle: saline): 101 % of control
- T/C (dose: 19.0 mg/kg/injection, schedule: Q01DX009 (ip), vehicle: saline): 93 % of control
- T/C (dose: 38.0 mg/kg/injection, schedule: Q01DX009 (ip), vehicle: saline): 104 % of control
- T/C [7]: 161 % of control

SMILES: COC(=O)/C=C1\C=CC=CC12C(C(=O)OC)c1ccccc1C(C(=O)OC)C2C(=O)OC (configuration not stated)
- T/C (dose: 12.5 mg/kg/injection, schedule: Q01DX009 (ip), vehicle: saline with Tween-80): 100 % of control
- T/C [8]: 99 % of control
- T/C [9]: 100 % of control

SMILES: O=C1/C(=C/c2ccccc2O)SC(=S)N1C1CC1
- T/C [9]: 100 % of control
- T/C [3]: 90 % of control
- T/C [5]: 95 % of control

SMILES: CC[N+]1([O-])CCOCC1
- T/C [7]: 97 % of control
- T/C [10]: 101 % of control
- T/C [11]: 113 % of control

SMILES: O=C(O)CCCNS(=O)(=O)c1ccc(S(=O)(=O)NCCCC(=O)O)cc1
- T/C [12]: 99 % of control
- T/C (dose: 100.0 mg/kg/injection, schedule: Q01DX005 (ip), vehicle: Klucel (hydroxypropylcellulose) (HPC)): 103 % of control
- T/C (dose: 200.0 mg/kg/injection, schedule: Q01DX005 (ip), vehicle: Klucel (hydroxypropylcellulose) (HPC)): 103 % of control

SMILES: NS(=O)(=O)c1ccc(NC(=O)Nc2c(Cl)cccc2Cl)cc1
- T/C [2]: 96 % of control
- T/C [13]: 87 % of control
- T/C [14]: 95 % of control

SMILES: COC1=CCC2=C(CC[C@H]3[C@H]2CCP3C)C1 (some centres not stated)
- T/C [15]: 101 % of control
- T/C [16]: 111 % of control
- T/C [17]: 103 % of control

SMILES: N=C(N)S(=O)O
- T/C [8]: 99 % of control
- T/C [9]: 100 % of control
- T/C [7]: 96 % of control
- T/C [3]: 98 % of control
- T/C [5]: 101 % of control
- T/C [11]: 95 % of control

SMILES: Cc1ccc(NC(=S)NC(=O)/C=C/c2ccccc2)cc1Cl
- T/C (dose: 25.0 mg/kg/injection, schedule: Q01DX009 (ip), vehicle: saline): 100 % of control
- T/C [7]: 105 % of control
- T/C [10]: 98 % of control
- T/C [11]: 97 % of control

SMILES: BrC1(Br)C2CCCCCCC21 (configuration not stated)
- T/C [9]: 100 % of control
- T/C (dose: 50.0 mg/kg/injection, schedule: Q04DX003 (ip), vehicle: saline with Tween-80): 100 % of control
- T/C [3]: 100 % of control
- T/C [4]: 104 % of control
- T/C [5]: 100 % of control
- T/C [6]: 104 % of control

SMILES: c1ccc(O[Si](Oc2ccccc2)(Oc2ccccc2)Oc2ccccc2)cc1
- T/C (dose: 25.0 mg/kg/injection, schedule: Q01DX009 (ip), vehicle: other): 86 % of control
- T/C (dose: 50.0 mg/kg/injection, schedule: Q01DX009 (ip), vehicle: other): 96 % of control
- T/C (dose: 100.0 mg/kg/injection, schedule: Q01DX009 (ip), vehicle: other): 99 % of control

SMILES: C=C1C(=O)OC2/C=C(\C)C(OC(C)=O)C3OC3C(C)(O)CC(OC(=O)/C(C)=C/C)C12 (configuration not stated)
- T/C (dose: 10.0 mg/kg/injection, schedule: Q01DX009 (ip), vehicle: saline with Tween-80): 99 % of control
- T/C (dose: 20.0 mg/kg/injection, schedule: Q01DX009 (ip), vehicle: saline with Tween-80): 104 % of control
- T/C (dose: 40.0 mg/kg/injection, schedule: Q01DX009 (ip), vehicle: saline with Tween-80): 107 % of control

SMILES: C=CC(C)(C)c1ccc(O)c(CC=C(C)C)c1
- T/C (dose: 12.5 mg/kg/injection, schedule: Q01DX005 (ip), vehicle: Klucel (hydroxypropylcellulose) (HPC)): 100 % of control
- T/C (dose: 25.0 mg/kg/injection, schedule: Q01DX005 (ip), vehicle: Klucel (hydroxypropylcellulose) (HPC)): 102 % of control
- T/C [12]: 102 % of control

SMILES: C=CCn1c(=S)sc2ccccc21
- T/C (dose: 6.25 mg/kg/injection, schedule: Q01DX009 (ip), vehicle: Klucel (hydroxypropylcellulose) (HPC)): 105 % of control
- T/C [18]: 105 % of control
- T/C [1]: 104 % of control

SMILES: CCOc1cccc(C=NCCS)c1O
- T/C [15]: 92 % of control
- T/C [16]: 90 % of control
- T/C [17]: 86 % of control

SMILES: CCCCCOC(=O)c1ccccc1N
- T/C [18]: 105 % of control
- T/C [1]: 104 % of control
- T/C [2]: 102 % of control and 103 % of control
- T/C [13]: 91 % of control

SMILES: Cc1onc(-c2ccccc2)c1C
- T/C (dose: 100.0 mg/kg/injection, schedule: Q01DX001 (ip), vehicle: saline): 99 % of control
- T/C (dose: 200.0 mg/kg/injection, schedule: Q01DX001 (ip), vehicle: saline): 102 % of control
- T/C (dose: 400.0 mg/kg/injection, schedule: Q01DX001 (ip), vehicle: saline): 105 % of control

SMILES: O=C(NC1CCCCC1)C1C(=O)C(=O)N(C2CCCCC2)C1=O (configuration not stated)
- T/C [15]: 105 % of control
- T/C [16]: 98 % of control

SMILES: CN(C[CH2][Sn]([CH3])([CH3])[Cl])C[CH2][Sn]([CH3])([CH3])[Cl]
- T/C (dose: 3.75 mg/kg/injection, schedule: Q01DX005 (ip), vehicle: saline): 102 % of control
- T/C (dose: 7.5 mg/kg/injection, schedule: Q01DX005 (ip), vehicle: saline): 121 % of control

SMILES: COc1cccc(CN2CCN(N=O)CC2)c1
- T/C [1]: 105 % of control
- T/C [2]: 97 % of control
- T/C [13]: 95 % of control
- T/C [14]: 105 % of control
